Experimental data from PubChem BioAssay AID200 (DTP/NCI, 2004).
“And” between values parts separate entries of the source, which are not always exact repeats. Identical values can stand only once. Inconclusive results and toxic doses are left out.

System: B6C3F1 mice, B16 melanoma ip, median survival T/C
Assay: NCI In Vivo Anticancer Drug Screen. Data for tumor model B16 Melanoma (intraperitoneal) in B6C3F1 mice
Settings: endpoint: median survival time, higher = longer survival
Outline: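 Transplantable tumor in mice; treated vs vehicle control groups; survival or tumor size measured; value = T/C ratio.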

[1] = dose: 6.25 mg/kg/injection, schedule: Q01DX009 (ip), vehicle: saline
[2] = dose: 12.5 mg/kg/injection, schedule: Q01DX009 (ip), vehicle: saline
[3] = dose: 25.0 mg/kg/injection, schedule: Q01DX009 (ip), vehicle: saline
[4] = dose: 50.0 mg/kg/injection, schedule: Q01DX009 (ip), vehicle: saline
[5] = dose: 100.0 mg/kg/injection, schedule: Q01DX009 (ip), vehicle: saline
[6] = dose: 100.0 mg/kg/injection, schedule: Q01DX009 (ip), vehicle: saline with Tween-80
[7] = dose: 200.0 mg/kg/injection, schedule: Q01DX009 (ip), vehicle: saline with Tween-80
[8] = dose: 50.0 mg/kg/injection, schedule: Q01DX009 (ip), vehicle: saline with Tween-80
[9] = dose: 6.25 mg/kg/injection, schedule: Q01DX009 (ip), vehicle: Klucel (hydroxypropylcellulose) (HPC)
[10] = dose: 12.5 mg/kg/injection, schedule: Q01DX009 (ip), vehicle: Klucel (hydroxypropylcellulose) (HPC)
[11] = dose: 100.0 mg/kg/injection, schedule: Q01DX009 (ip), vehicle: Klucel (hydroxypropylcellulose) (HPC)
[12] = dose: 200.0 mg/kg/injection, schedule: Q01DX009 (ip), vehicle: Klucel (hydroxypropylcellulose) (HPC)
[13] = dose: 25.0 mg/kg/injection, schedule: Q01DX009 (ip), vehicle: saline with Tween-80
[14] = dose: 6.25 mg/kg/injection, schedule: Q01DX009 (ip), vehicle: saline with Tween-80
[15] = dose: 12.5 mg/kg/injection, schedule: Q01DX009 (ip), vehicle: saline with Tween-80
[16] = dose: 25.0 mg/kg/injection, schedule: Q01DX009 (ip), vehicle: Klucel (hydroxypropylcellulose) (HPC)
[17] = dose: 50.0 mg/kg/injection, schedule: Q01DX009 (ip), vehicle: Klucel (hydroxypropylcellulose) (HPC)

CC1(C)COCN1COCCOCN1COCC1(C)C
T/C [1]: 94 % of control
T/C [2]: 96 % of control
T/C [3]: 101 % of control
T/C [4]: 115 % of control
T/C [5]: 113 % of control

COC1=C(C)C(=O)C2=C(C1=O)C(CO)N1C(C#N)C3CC4C(C1C2N1CCOC41)N3C (configuration not stated)
T/C (dose: 0.06 mg/kg/injection, schedule: Q01DX009 (ip), vehicle: acid diluted with saline): 105 % of control
T/C (dose: 0.12 mg/kg/injection, schedule: Q01DX009 (ip), vehicle: acid diluted with saline): 98 % of control
T/C (dose: 0.12 mg/kg/injection, schedule: Q01DX009 (ip), vehicle: saline + alcohol): 102 % of control
T/C (dose: 0.25 mg/kg/injection, schedule: Q01DX009 (ip), vehicle: acid diluted with saline): 111 % of control
T/C (dose: 0.25 mg/kg/injection, schedule: Q01DX009 (ip), vehicle: saline + alcohol): 109 % of control and 104 % of control
T/C (dose: 0.5 mg/kg/injection, schedule: Q01DX009 (ip), vehicle: acid diluted with saline): 116 % of control and 103 % of control
T/C (dose: 0.5 mg/kg/injection, schedule: Q01DX009 (ip), vehicle: saline + alcohol): 112 % of control and 113 % of control and 118 % of control
T/C (dose: 1.0 mg/kg/injection, schedule: Q01DX009 (ip), vehicle: acid diluted with saline): 108 % of control and 113 % of control
T/C (dose: 1.0 mg/kg/injection, schedule: Q01DX009 (ip), vehicle: saline + alcohol): 109 % of control and 121 % of control

O=C(O)C(Cc1ccc(O)cc1)NS(=O)(=O)Cc1ccccc1 (configuration not stated)
T/C [6]: 106 % of control
T/C [7]: 101 % of control
T/C (dose: 400.0 mg/kg/injection, schedule: Q01DX009 (ip), vehicle: saline with Tween-80): 100 % of control

NC(=O)C#CC(N)=O
T/C (dose: 0.06 mg/kg/injection, schedule: Q01DX009 (ip), vehicle: Klucel (hydroxypropylcellulose) (HPC)): 101 % of control
T/C (dose: 0.12 mg/kg/injection, schedule: Q01DX009 (ip), vehicle: Klucel (hydroxypropylcellulose) (HPC)): 102 % of control
T/C (dose: 0.23 mg/kg/injection, schedule: Q01DX009 (ip), vehicle: Klucel (hydroxypropylcellulose) (HPC)): 97 % of control
T/C (dose: 0.45 mg/kg/injection, schedule: Q01DX009 (ip), vehicle: Klucel (hydroxypropylcellulose) (HPC)): 100 % of control
T/C (dose: 0.9 mg/kg/injection, schedule: Q01DX009 (ip), vehicle: Klucel (hydroxypropylcellulose) (HPC)): 102 % of control

CC(C)(C)OC(=O)NC(Cc1cn(Cc2ccccc2)cn1)C(=O)O (configuration not stated)
T/C [8]: 102 % of control
T/C [6]: 97 % of control
T/C [7]: 100 % of control

Nc1ccc(C(=O)O)c(O)c1
T/C (dose: 4.7 mg/kg/injection, schedule: Q01DX009 (ip), vehicle: saline with Tween-80): 90 % of control
T/C [9]: 95 % of control
T/C (dose: 9.3 mg/kg/injection, schedule: Q01DX009 (ip), vehicle: saline with Tween-80): 113 % of control and 103 % of control
T/C [10]: 101 % of control
T/C (dose: 18.7 mg/kg/injection, schedule: Q01DX009 (ip), vehicle: saline with Tween-80): 93 % of control and 102 % of control
T/C (dose: 37.5 mg/kg/injection, schedule: Q01DX009 (ip), vehicle: saline with Tween-80): 109 % of control (2×) and 97 % of control
T/C (dose: 75.0 mg/kg/injection, schedule: Q01DX009 (ip), vehicle: saline with Tween-80): 99 % of control and 100 % of control and 106 % of control
T/C [11]: 92 % of control
T/C (dose: 150.0 mg/kg/injection, schedule: Q01DX009 (ip), vehicle: saline with Tween-80): 93 % of control
T/C [12]: 86 % of control
T/C (dose: 300.0 mg/kg/injection, schedule: Q01DX009 (ip), vehicle: saline with Tween-80): 97 % of control

Cc1nc2ccccc2c(C(=O)NO)[n+]1[O-]
T/C (dose: 3.13 micrograms/kg/injection, schedule: Q01DX009 (ip), vehicle: other): 100 % of control
T/C (dose: 6.25 micrograms/kg/injection, schedule: Q01DX009 (ip), vehicle: other): 104 % of control
T/C (dose: 12.5 micrograms/kg/injection, schedule: Q01DX009 (ip), vehicle: other): 122 % of control
T/C (dose: 25.0 micrograms/kg/injection, schedule: Q01DX009 (ip), vehicle: other): 110 % of control

CCS(=O)(=O)OCCCCOS(=O)(=O)CC
T/C [13]: 97 % of control
T/C [8]: 100 % of control

C=C(C)[C@@H]1CCc2c(O)c(O)c(=O)cc(C)c2C1
T/C (dose: 3.12 mg/kg/injection, schedule: Q01DX009 (ip), vehicle: Klucel (hydroxypropylcellulose) (HPC)): 100 % of control
T/C (dose: 3.12 mg/kg/injection, schedule: Q01DX009 (ip), vehicle: saline with Tween-80): 100 % of control
T/C [9]: 99 % of control
T/C [14]: 100 % of control
T/C [10]: 104 % of control
T/C [15]: 95 % of control
T/C [2]: 100 % of control
T/C [16]: 112 % of control
T/C [13]: 102 % of control
T/C [3]: 115 % of control
T/C [17]: 99 % of control
T/C [8]: 110 % of control
T/C [11]: 102 % of control

O=C1C=CC(=O)O1 (tested in a mixture with another compound)
T/C [2]: 101 % of control
T/C (dose: 12.5 mg/kg/injection, schedule: Q04DX003 (ip), vehicle: saline): 104 % of control
T/C [3]: 113 % of control
T/C (dose: 25.0 mg/kg/injection, schedule: Q04DX003 (ip), vehicle: saline): 101 % of control and 106 % of control
T/C [4]: 117 % of control
T/C (dose: 50.0 mg/kg/injection, schedule: Q04DX003 (ip), vehicle: saline): 108 % of control
T/C (dose: 400.0 mg/kg/injection, schedule: Q01DX009 (ip), vehicle: saline): 123 % of control

CCN(CC)c1ccc2[nH]c3c(C(N)=O)cc(=O)c(=O)c=3oc2c1
T/C [15]: 96 % of control
T/C [13]: 112 % of control

CCC1(O)C(=O)OCc2c1cc1n(c2=O)Cc2cc3ccccc3nc2-1 (configuration not stated)
T/C (dose: 0.75 mg/kg/injection, schedule: Q01DX009 (ip), vehicle: other): 156 % of control
T/C (dose: 1.5 mg/kg/injection, schedule: Q01DX009 (ip), vehicle: other): 165 % of control

CC(=O)N(C)c1ccc(Nc2cc(C)[nH]c3ccc4ncnc4c23)cc1
T/C [1]: 122 % of control
T/C [2]: 171 % of control and 178 % of control
T/C [3]: 177 % of control and 198 % of control
T/C [4]: 177 % of control and 184 % of control

Nc1nc2nc[nH]c2c(=O)[nH]1
T/C [14]: 116 % of control
T/C [15]: 105 % of control
T/C [13]: 104 % of control
T/C [8]: 102 % of control
T/C [6]: 90 % of control

c1ccc(CN2CCOC2)cc1
T/C [2]: 100 % of control and 101 % of control
T/C [3]: 101 % of control and 108 % of control
T/C [4]: 98 % of control and 102 % of control
T/C [5]: 112 % of control and 102 % of control
T/C (dose: 200.0 mg/kg/injection, schedule: Q01DX009 (ip), vehicle: saline): 113 % of control

Nc1nc(N)c2cc(CNc3ccc(C(=O)NC(CC(=O)O)CC(=O)O)cc3)ccc2n1
T/C (dose: 0.04 mg/kg/injection, schedule: Q01DX009 (ip), vehicle: Klucel (hydroxypropylcellulose) (HPC)): 87 % of control
T/C (dose: 0.09 mg/kg/injection, schedule: Q01DX009 (ip), vehicle: Klucel (hydroxypropylcellulose) (HPC)): 89 % of control
T/C (dose: 0.39 mg/kg/injection, schedule: Q01DX009 (ip), vehicle: Klucel (hydroxypropylcellulose) (HPC)): 87 % of control
T/C [14]: 110 % of control
T/C [15]: 90 % of control
T/C [13]: 95 % of control
T/C [8]: 87 % of control

CC(/C=C/c1ccccc1)=Nc1ccccc1
T/C [15]: 99 % of control
T/C [13]: 102 % of control
T/C [8]: 99 % of control
T/C [6]: 115 % of control
T/C [7]: 110 % of control

Nc1ccc2ccc(N)cc2c1
T/C [13]: 109 % of control
T/C [8]: 109 % of control
T/C [6]: 116 % of control
T/C [7]: 105 % of control

Nc1nc(-c2cccc(S(=O)(=O)O)c2)c(Br)c(=O)[nH]1
T/C [6]: 118 % of control
T/C [7]: 122 % of control

Cc1c2ccc3ccccc3c2c[n+]2ccccc12
T/C (dose: 1.25 mg/kg/injection, schedule: Q01DX009 (ip), vehicle: Klucel (hydroxypropylcellulose) (HPC)): 104 % of control
T/C (dose: 2.5 mg/kg/injection, schedule: Q01DX009 (ip), vehicle: Klucel (hydroxypropylcellulose) (HPC)): 100 % of control
T/C (dose: 5.0 mg/kg/injection, schedule: Q01DX009 (ip), vehicle: Klucel (hydroxypropylcellulose) (HPC)): 112 % of control
T/C (dose: 10.0 mg/kg/injection, schedule: Q01DX009 (ip), vehicle: Klucel (hydroxypropylcellulose) (HPC)): 96 % of control
T/C (dose: 20.0 mg/kg/injection, schedule: Q01DX009 (ip), vehicle: Klucel (hydroxypropylcellulose) (HPC)): 100 % of control

O=C1SC(c2ccccc2)=S=C1c1ccccc1
T/C [16]: 92 % of control
T/C [17]: 97 % of control
T/C [11]: 98 % of control
T/C [12]: 93 % of control
